One experiment deals with T1, PTK2 (Homo sapiens, UniProt Q05397).
T1 construct: purchased Invitrogen PV3832
The experiment is described as follows: PTK2 Enzyme Test (DELFIA assay, poly-Glu-Tyr substrate). The class given is biochemical. The following applies: active PTK2 enzyme, 50 μM ATP in ATP Mix, 1 h pre-incubation. The method, boiled down: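 Active PTK2 (0.01 μg/well) pre-incubated 1 h at RT with compound, then reacted 1 h with 50 μM ATP (in ATP mix) and poly(Glu,Tyr) 4:1 substrate, 2% DMSO final, pH 7.5. Biotinylated product captured on streptavidin, detected by Eu-PY20 time-resolved fluorescence; IC50 by sigmoidal fit, variable Hill slope.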

Experiment [1] deals with T2, PTK2-phosphorylation at tyrosine 397 (pY397) (Homo sapiens, UniProt Q05397).
T2 construct: endogenous in cells; host or cells: PC-3 (ATCC CRL-1435)
As to the kind of experiment: Phospho-PTK2 (pY397) Assay in PC-3 cells. It is filed as cell-based. To be noted: PC-3 prostate carcinoma cells, 2 h incubation; read-out: PC3pPTK2 Y397 EC50. The method, boiled down: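 PC-3 cells (2×10^4/well, F12K + 10% FCS) exposed to compound (about 0.8 nM–50 μM, 1% DMSO final) for 2 h at 37 °C. Then formaldehyde-fixed and immunostained with anti-pY397 PTK2 (total PTK2 control) and an HRP secondary. EC50 from sigmoidal fit with variable Hill slope.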

The term IC50 denotes the midpoint of a concentration-inhibition curve. The low end stands for greater potency in that assay, the high end for weaker potency in that assay. As a reminder, the EC50 is the concentration that produces a half-maximal response.

T1 sequence (Q05397 whole entry): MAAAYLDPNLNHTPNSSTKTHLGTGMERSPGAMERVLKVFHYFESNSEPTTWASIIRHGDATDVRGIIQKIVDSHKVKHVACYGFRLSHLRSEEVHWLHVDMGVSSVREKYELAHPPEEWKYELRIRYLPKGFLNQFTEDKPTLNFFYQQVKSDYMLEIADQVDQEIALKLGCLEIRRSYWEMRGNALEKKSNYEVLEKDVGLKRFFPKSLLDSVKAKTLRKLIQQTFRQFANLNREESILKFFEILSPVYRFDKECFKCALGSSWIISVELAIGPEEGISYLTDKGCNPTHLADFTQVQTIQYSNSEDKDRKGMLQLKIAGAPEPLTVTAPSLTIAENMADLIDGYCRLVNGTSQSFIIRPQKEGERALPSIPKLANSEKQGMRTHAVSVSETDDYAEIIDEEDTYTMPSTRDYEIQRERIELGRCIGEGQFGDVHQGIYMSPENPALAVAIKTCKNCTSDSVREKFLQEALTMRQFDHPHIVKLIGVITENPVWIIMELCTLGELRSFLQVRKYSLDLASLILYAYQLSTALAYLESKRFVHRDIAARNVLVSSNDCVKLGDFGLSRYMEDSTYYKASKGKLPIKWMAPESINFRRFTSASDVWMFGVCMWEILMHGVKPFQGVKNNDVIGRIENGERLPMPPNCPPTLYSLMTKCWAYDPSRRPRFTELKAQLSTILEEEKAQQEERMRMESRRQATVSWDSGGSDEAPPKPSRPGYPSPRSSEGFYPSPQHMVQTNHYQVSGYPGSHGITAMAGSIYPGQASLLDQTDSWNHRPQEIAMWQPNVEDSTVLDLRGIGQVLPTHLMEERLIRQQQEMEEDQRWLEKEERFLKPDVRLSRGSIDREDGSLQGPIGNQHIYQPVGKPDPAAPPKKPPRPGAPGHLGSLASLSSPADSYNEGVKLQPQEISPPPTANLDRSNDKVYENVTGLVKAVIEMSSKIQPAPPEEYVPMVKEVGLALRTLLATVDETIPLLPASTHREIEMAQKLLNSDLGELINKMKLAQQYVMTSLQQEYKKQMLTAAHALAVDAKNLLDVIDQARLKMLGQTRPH
T2 sequence (Q05397 whole entry): as above

As to `COc1cc(C(=O)NC2CCC(N3CCN(CC4CC4)CC3)CC2)c(C)cc1Nc1ncc(C(F)(F)F)c(NCc2ccc(C)cc2N(C)S(C)(=O)=O)n1` (centres unmarked) [Example 107], the IC50 against PTK2 stood at 4 nM. Also, in experiment [1], the EC50 turned out to be 2 nM.
The like results for `COc1cc(C(=O)N(C)C2CCN(C)CC2)ccc1Nc1ncc(C(F)(F)F)c(NCc2ccc(C)cc2N(C)S(C)(=O)=O)n1` [Example 108] were, in that order, 2 nM and 2 nM.
The like results for `COc1cc(CNC2CCCCC2)ccc1Nc1ncc(C(F)(F)F)c(NCc2ccc(C)cc2N(C)S(C)(=O)=O)n1` [Example 109] were, in that order, 2 nM and 2 nM.
At PTK2, `COc1cc(C(=O)NC2CCN(C)CC2)ccc1Nc1ncc(C(F)(F)F)c(NCc2ccc(Cl)cc2N(C)S(C)(=O)=O)n1` [Example 111] came in with an IC50 of 1 nM. For the same compound, the EC50 in experiment [1] is 3 nM.
`COc1cc(N2CCN(C3CCN(C)CC3)CC2)ccc1Nc1ncc(C(F)(F)F)c(NCc2ccc(C)cc2N(C)S(C)(=O)=O)n1` [Example 112] registered an IC50 against PTK2 of 2 nM. In addition, in experiment [1], the EC50 came out at 3 nM.
Take `COc1cc(C(=O)NC(C)(C)C)c(F)cc1Nc1ncc(C(F)(F)F)c(NCc2ccc(C)cc2N(C)S(C)(=O)=O)n1` [Example 113]: at PTK2, inhibition was half-maximal at 5 nM (IC50). Also, in experiment [1], the EC50 came out at 3 nM.
As to `COc1cc(C(=O)N[C@H]2CC[C@H](N3C[C@@H](C)O[C@@H](C)C3)CC2)ccc1Nc1ncc(C(F)(F)F)c(NCc2ccc(C)cc2N(C)S(C)(=O)=O)n1` [Example 114], 4 nM corresponded to half-maximal inhibition at PTK2 (IC50). In experiment [1], the EC50 came to 3 nM.
The like results for `CCCNC(=O)c1ccc(Nc2ncc(C(F)(F)F)c(NCc3ccc(F)cc3N(C)S(C)(=O)=O)n2)c(OC)c1` [Example 115] were, in that order, 5 nM and 3 nM.
The like results for `COc1cc(C(=O)N[C@@H]2CCCN(C3COC3)C2)ccc1Nc1ncc(C(F)(F)F)c(NCc2ccc(C)cc2N(C)S(C)(=O)=O)n1` [Example 116] were, in that order, 3 nM and 3 nM.
For `CC(=O)Nc1ccc(Nc2ncc(C(F)(F)F)c(NCc3ccc(C)cc3N(C)S(C)(=O)=O)n2)cc1C` [Example 117], in that order: 0.85 nM and 3 nM.
In turn, `COc1ccc(CNc2nc(Nc3ccc(NC(C)=O)c(C)c3)ncc2C(F)(F)F)c(N(C)S(C)(=O)=O)c1` [Example 118] returned an IC50 at PTK2 of 1 nM. The EC50 in experiment [1] is 3 nM.
`COc1cc(C(=O)N[C@H]2CCN(C)C[C@H]2F)ccc1Nc1ncc(C(F)(F)F)c(NCc2ccc(C)cc2N(C)S(C)(=O)=O)n1` [Example 119]: at PTK2, half-maximal inhibition (IC50) was put at 3 nM. Further, the concentration for a half-maximal effect (EC50) in experiment [1] was determined as 3 nM.
`COc1cc(C(=O)N[C@H]2CCN(C)C2)c(Cl)cc1Nc1ncc(C(F)(F)F)c(NCc2ccc(C)cc2N(C)S(C)(=O)=O)n1` [Example 120] displayed an IC50 against PTK2 of 3 nM. In addition, the EC50 in experiment [1] is 3 nM.
On PTK2, `CCc1cc(C(=O)NC)ccc1Nc1ncc(C(F)(F)F)c(NCc2ccc(C)cc2N(C)S(C)(=O)=O)n1` [Example 121] registered an IC50 of 2 nM. In addition, in experiment [1], the EC50 was determined as 3 nM.
For `CCc1cc(C(=O)NOC)ccc1Nc1ncc(C(F)(F)F)c(NCc2ccc(C)cc2N(C)S(C)(=O)=O)n1` [Example 122], in that order: 2 nM and 3 nM.
As to `COc1cc(C(=O)N(C)C)c(C)cc1Nc1ncc(C(F)(F)F)c(NCc2ccc(C)cc2N(C)S(C)(=O)=O)n1` [Example 123], the IC50 on PTK2 worked out at 9 nM. In addition, in experiment [1], the EC50 came out at 3 nM.
For `COC(=O)Nc1cc(OC)c(Nc2ncc(C(F)(F)F)c(NCc3ccc(C)cc3N(C)S(C)(=O)=O)n2)cc1C` [Example 124], in that order: 5 nM and 3 nM.
The compound `COC(=O)Nc1cc(OC)c(Nc2ncc(C(F)(F)F)c(NCc3ccc(OC)cc3N(C)S(C)(=O)=O)n2)cc1C` [Example 125] yielded an IC50 against PTK2 of 5 nM. Besides, the EC50 in experiment [1] was determined as 3 nM.
For `COC(=O)Nc1cc(OC)c(Nc2ncc(C(F)(F)F)c(NCc3ccc(F)cc3N(C)S(C)(=O)=O)n2)cc1C` [Example 126], in that order: 6 nM and 3 nM.

These data come from patent US8377943B2, “2,4-diaminopyrimidine derivates as PTK2-inhibitors for the treatment of abnormal cell growth” (Boehringer Ingelheim International GmbH, priority 2008, dated 2013).
